pIC50: −log10 of the molar value. Like-named read-outs stand apart in the source and are kept apart here.
What was measured:
[1] = molecular target: T1, cyclin D1/cdk 4 enzyme (Homo sapiens, UniProt P11802); assay: CDK4 ELISA kinase assay (phospho-Rb ser 795 detection); assay type: biochemical; conditions: 200 μM ATP
T1 construct: made in house; host or cells: Sf9 insect cells, recombinant baculovirus
Summary of the method: (§1)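 Wells were coated overnight with GST-Rb C-terminal fragment, then blocked. Compound (10 ug/ml final) and cyclin/CDK enzyme from baculovirus-infected Sf9 cells with 200 μM ATP reacted 1 h at 30° C. Ser795 phosphorylation was detected by ELISA at 450 nm.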

[2] = molecular target: T2, cyclin E/CDK2 enzyme (Homo sapiens, UniProt P24941); assay: CDK2 ELISA kinase assay (phospho-Rb ser 795 detection); assay type: biochemical; conditions: In Vitro Enzyme Assays, read-out: CDK2 IC50
T2 construct: made in house; host or cells: Sf9 insect cells, recombinant baculovirus
Summary of the method: as §1

[3] = molecular target: T3, cyclin B/CDK1 enzyme (Homo sapiens, UniProt P06493); assay: CDK1 ELISA kinase assay (phospho-Rb ser 795 detection); assay type: biochemical
T3 construct: purchased New England BioLabs; host or cells: Sf9 insect cells, recombinant baculovirus
T3 sequence (P06493 whole entry): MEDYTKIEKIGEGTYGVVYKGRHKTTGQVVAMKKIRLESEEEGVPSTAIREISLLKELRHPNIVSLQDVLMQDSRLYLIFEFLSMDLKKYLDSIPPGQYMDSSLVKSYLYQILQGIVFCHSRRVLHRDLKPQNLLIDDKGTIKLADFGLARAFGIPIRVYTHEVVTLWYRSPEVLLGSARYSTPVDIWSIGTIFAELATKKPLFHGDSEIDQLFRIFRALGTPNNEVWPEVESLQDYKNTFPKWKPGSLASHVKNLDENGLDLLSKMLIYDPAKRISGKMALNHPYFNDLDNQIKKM
T3 sequence (P14635 whole entry partner): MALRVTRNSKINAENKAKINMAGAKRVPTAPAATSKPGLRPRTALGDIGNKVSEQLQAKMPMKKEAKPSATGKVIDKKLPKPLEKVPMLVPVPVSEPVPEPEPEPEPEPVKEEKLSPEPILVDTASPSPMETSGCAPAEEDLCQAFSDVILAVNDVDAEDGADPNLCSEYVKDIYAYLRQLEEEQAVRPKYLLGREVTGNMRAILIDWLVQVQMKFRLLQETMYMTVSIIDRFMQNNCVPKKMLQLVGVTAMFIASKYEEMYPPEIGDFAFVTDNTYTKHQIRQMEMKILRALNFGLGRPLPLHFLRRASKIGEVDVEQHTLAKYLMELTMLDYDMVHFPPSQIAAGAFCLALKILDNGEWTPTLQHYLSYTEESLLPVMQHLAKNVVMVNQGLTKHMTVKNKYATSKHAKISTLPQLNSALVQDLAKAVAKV
Summary of the method: as §1

[4] = tested on: BT474; assay: Cytotoxicity assay (SRB), BT474; assay type: cell-based; conditions: Homo sapiens, BT-474, 144 h, read-out: In Vitro Cellular Activity IC50 BT474
Summary of the method: (§2)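 Overnight-seeded monolayers (4000–12000 cells/well by line) receive compound in 5% FBS medium at 37 °C, 7% CO2. After 3 d, or 6 d for BT474, cellular protein is fixed with cold TCA, stained with SRB and read at 540 nm against untreated wells.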

[5] = tested on: HCT-116; assay: Cytotoxicity assay (SRB), HCT-116; assay type: cell-based; conditions: Homo sapiens, HCT-116, 72 h, read-out: In Vitro Cellular Activity IC50 HCT116
Summary of the method: as §2

[6] = tested on: LoVo; assay: Cytotoxicity assay (SRB), LoVo; assay type: cell-based; conditions: Homo sapiens, LoVo, 72 h, read-out: In Vitro Cellular Activity IC50 LOVO
Summary of the method: as §2

[7] = tested on: MCF-7; assay: Cytotoxicity assay (SRB), MCF-7; assay type: cell-based; conditions: Homo sapiens, MCF7, 72 h, read-out: In Vitro Cellular Activity IC50 MCF-7
Summary of the method: as §2

[8] = In Vitro Enzyme Assays, read-out: CDK4 IC50
[9] = In Vitro Enzyme Assays, read-out: CDK1 IC50

T1 sequence (P11802 whole entry, species assumed): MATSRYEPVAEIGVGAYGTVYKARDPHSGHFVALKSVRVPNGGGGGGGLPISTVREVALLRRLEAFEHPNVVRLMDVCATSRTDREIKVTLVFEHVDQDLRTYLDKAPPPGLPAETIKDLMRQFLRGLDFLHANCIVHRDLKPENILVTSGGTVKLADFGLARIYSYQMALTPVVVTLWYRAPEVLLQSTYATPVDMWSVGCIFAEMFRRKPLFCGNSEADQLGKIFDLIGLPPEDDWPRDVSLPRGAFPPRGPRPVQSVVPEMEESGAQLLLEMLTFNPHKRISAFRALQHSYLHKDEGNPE
T1 sequence (P24385 whole entry partner, species assumed): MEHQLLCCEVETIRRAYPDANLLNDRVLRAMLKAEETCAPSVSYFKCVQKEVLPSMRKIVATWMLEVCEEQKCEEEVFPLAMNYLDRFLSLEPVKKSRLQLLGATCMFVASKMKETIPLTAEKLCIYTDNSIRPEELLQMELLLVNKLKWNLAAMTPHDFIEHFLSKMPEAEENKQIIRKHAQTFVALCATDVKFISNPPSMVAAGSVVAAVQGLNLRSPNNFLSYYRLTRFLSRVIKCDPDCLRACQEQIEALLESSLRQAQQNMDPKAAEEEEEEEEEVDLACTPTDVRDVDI

SMILES | pIC50 [1, 8] | pIC50 [2] | pIC50 [3, 9] | pIC50 ([4]; BT474 cells, SRB, 6 days) | pIC50 ([5]; HCT116 cells, SRB, three days) | pIC50 ([6]; LoVo cells, SRB, three days) | pIC50 ([7]; MCF-7 cells, SRB, three days) | pIC50 [4] | pIC50 [5] | pIC50 [6] | pIC50 [7] | pIC50 ([1]; CDK4 IC50, In Vitro Enzyme Assays) | pIC50 ([3]; CDK1 IC50, In Vitro Enzyme Assays)
CC(=O)Oc1cc(CN/C=C2\C(=O)NC(=O)c3ccc(Br)cc32)cc2c1OC(C)(C)O2 [Example 268, 6-({[(Z)-(6-Bromo-1,3-dioxo-2,3-dihydroisoquinolin-4(1H)-ylidene)methyl]amino}methyl)-2,2-dimethyl-1,3-benzodioxol-4-yl acetate] | 4.46 | 4.63 | 5.92 | < 4.30 | 4.54 | 4.33 | 4.46 | – | – | – | – | – | –
CC1(C)Oc2cc(CN/C=C3\C(=O)NC(=O)c4ccc(Br)cc43)cc(OC(=O)C3CC3)c2O1 [Example 269, 6-({[(Z)-(6-Bromo-1,3-dioxo-2,3-dihydroisoquinolin-4(1H)-ylidene)methyl]amino}methyl)-2,2-dimethyl-1,3-benzodioxol-4-yl cyclopropanecarboxylate] | < 4.30 | 4.61 | 5.72 | 4.37 | 4.60 | 4.39 | 4.54 | – | – | – | – | – | –
CN(C)CCCc1ccc(N/C=C2\C(=O)NC(=O)c3ccc(Br)cc32)cc1 [Example 270, (4Z)-6-Bromo-4-[({4-[3-(dimethylamino)propyl]phenyl}amino)methylene]isoquinoline-1,3(2H,4H)-dione] | 5.52 | 4.41 | < 4.30 | 4.57 | 4.89 | 4.62 | 5.14 | – | – | – | – | – | –
CONCCCc1ccc(N/C=C2\C(=O)NC(=O)c3ccc(Br)cc32)cc1 [Example 274, (4Z)-6-Bromo-4-[({4-[3-(methoxyamino)propyl]phenyl}amino)methylene]isoquinoline-1,3(2H,4H)-dione] | 5.72 | 5.55 | 4.82 | 4.92 | 5.02 | 4.90 | 4.99 | – | – | – | – | – | –
CN(C)CCCN(C)c1ccc(N/C=C2\C(=O)NC(=O)c3ccc(Br)cc32)cc1 [Example 275, (4Z)-6-Bromo-4-[({4-[[3-(dimethylamino)propyl](methyl)amino]phenyl}amino)methylene]isoquinoline-1,3(2H,4H)-dione] | 4.84 | < 4.30 | < 4.30 | 5.00 | 5.38 | 5.07 | 5.28 | – | – | – | – | – | –
CN1CCC(Oc2ccc(N/C=C3\C(=O)NC(=O)c4ccc(Br)cc43)cc2)C1 (stereo not shown) [Example 276, (4Z)-6-Bromo-4-[({4-[(1-methylpyrrolidin-3-yl)oxy]phenyl}amino)methylene]isoquinoline-1,3(2H,4H)-dione] | 4.37 | < 4.30 | < 4.30 | 5.08 | 5.41 | 5.21 | 5.36 | – | – | – | – | – | –
CN1CCN(CCCNC=C2C(=O)NC(=O)c3ccc(-n4cccc4)cc32)CC1 [Example 279, 4-{[3-(4-Methyl-piperazin-1-yl)-propylamino]-methylene}-6-pyrrol-1-yl-4H-isoquinoline-1,3-dione] | 6.72 | < 4.30 | < 4.30 | 5.22 | 5.00 | 4.96 | 5.28 | – | – | – | – | – | –
CN(C)NC(=O)c1ccc(N/C=C2\C(=O)NC(=O)c3ccc(Br)cc32)cc1 [Example 280, 4-{[(Z)-(6-Bromo-1,3-dioxo-2,3-dihydroisoquinolin-4(1H)-ylidene)methyl]amino}-N′,N′-dimethylbenzohydrazide] | 4.54 | 5.35 | < 4.30 | 4.55 | 4.68 | 4.49 | 4.77 | – | – | – | – | – | –
CN(C)NC(=O)Cc1ccc(N/C=C2\C(=O)NC(=O)c3ccc(Br)cc32)cc1 [Example 283, 2-(4-{[(Z)-(6-Bromo-1,3-dioxo-2,3-dihydroisoquinolin-4(1H)-ylidene)methyl]amino}phenyl)-N′,N′-dimethylacetohydrazide] | 5.00 | < 4.30 | < 4.30 | – | – | – | – | 4.80 | 4.77 | 4.77 | 5.01 | – | –
COC[C@@H]1CCCN1Cc1ccc(N/C=C2\C(=O)NC(=O)c3ccc(I)cc32)cc1 [Example 285, (4Z)-6-Iodo-4-{[(4-{[(2S)-2-(methoxymethyl)pyrrolidin-1-yl]methyl}phenyl)amino]methylene}isoquinoline-1,3(2H,4H)-dione] | 6.12 | < 4.30 | < 4.30 | 6.43 | 5.44 | 5.44 | 6.10 | – | – | – | – | – | –
CCCOc1ccc(CN/C=C2\C(=O)NC(=O)c3ccc(I)cc32)cc1OC(=O)CCl [Example 293, 5-({[(Z)-(6-Iodo-1,3-dioxo-2,3-dihydroisoquinolin-4(1H)-ylidene)methyl]amino}methyl)-2-propoxyphenyl chloroacetate] | 4.86 | < 4.30 | < 4.30 | 6.16 | 6.11 | 6.05 | 5.66 | – | – | – | – | – | –
CC(C)[Si](Oc1cc(CN/C=C2\C(=O)NC(=O)c3ccc(Br)cc32)ccc1N)(C(C)C)C(C)C [Example 303, (4Z)-4-[({4-Amino-3-[(triisopropylsilyl)oxy]benzyl}amino)methylene]-6-bromoisoquinoline-1,3(2H,4H)-dione] | – | 5.43 | – | 5.51 | 5.28 | 5.34 | 5.00 | – | – | – | – | 6.41 | 4.47

Further lines, with some results ahead:

pIC50 [1, 8] | pIC50 [2] | pIC50 [3, 9] | SMILES | pIC50 ([4]; BT474 cells, SRB, 6 days) | pIC50 ([5]; HCT116 cells, SRB, three days) | pIC50 ([6]; LoVo cells, SRB, three days) | pIC50 ([7]; MCF-7 cells, SRB, three days) | pIC50 [4] | pIC50 [5] | pIC50 [6] | pIC50 [7] | pIC50 ([1]; CDK4 IC50, In Vitro Enzyme Assays) | pIC50 ([3]; CDK1 IC50, In Vitro Enzyme Assays)
4.54 | < 4.30 | 4.39 | CN1CCN(c2ccc(N/C=C3\C(=O)NC(=O)c4ccc(-c5ccc(OC(F)(F)F)cc5)cc43)cc2)CC1 [Example 298, (4Z)-4-({[4-(4-Methylpiperazin-1-yl)phenyl]amino}methylene)-6-[4-(trifluoromethoxy)phenyl]isoquinoline-1,3(2H,4H)-dione] | 5.20 | 5.68 | 5.01 | 5.55 | – | – | – | – | – | –
7.05 | 5.08 | < 4.30 | C=CC(=O)Nc1ccc(CN/C=C2\C(=O)NC(=O)c3ccc(Br)cc32)cc1O [Example 301, N-[4-({[(Z)-(6-Bromo-1,3-dioxo-2,3-dihydroisoquinolin-4(1H)-ylidene)methyl]amino}methyl)-2-hydroxyphenyl]acrylamide] | 6.85 | 6.77 | 6.77 | 6.70 | – | – | – | – | – | –
5.82 | 4.44 | < 4.30 | CN(C)CCCCCN/C=C1\C(=O)NC(=O)c2ccc(Br)cc21 [Example 304, (Z)-6-Bromo-4-((5-(dimethylamino)pentylamino)methylene)isoquinoline-1,3(2H,4H)-dione] | 4.80 | 4.89 | 5.17 | 5.15 | – | – | – | – | – | –
5.77 | 4.40 | < 4.30 | CN(C)CCCCN/C=C1\C(=O)NC(=O)c2ccc(Br)cc21 [Example 305, (Z)-6-Bromo-4-((4-(dimethylamino)butylamino)methylene)isoquinoline-1,3(2H,4H)-dione] | 4.64 | 4.68 | 4.85 | 4.74 | – | – | – | – | – | –
5.17 | < 4.30 | < 4.30 | CN(C)CCCN/C=C1\C(=O)NC(=O)c2ccc(Br)cc21 [Example 306, (Z)-6-Bromo-4-((3-(dimethylamino)propylamino)methylene)isoquinoline-1,3(2H,4H)-dione] | 4.43 | 4.59 | 4.89 | 4.60 | – | – | – | – | – | –
5.01 | 4.42 | < 4.30 | O=C1NC(=O)c2ccc(Br)cc2/C1=C/NCCN1CCNCC1 [Example 307, (Z)-6-Bromo-4-((2-(piperazin-1-yl)ethylamino)methylene)isoquinoline-1,3(2H,4H)-dione] | 4.34 | 4.64 | 4.55 | 4.60 | – | – | – | – | – | –
5.59 | < 4.30 | < 4.30 | CCN(CC)CCCCN/C=C1\C(=O)NC(=O)c2ccc(Br)cc21 [Example 308, (Z)-6-Bromo-4-((4-(diethylamino)butylamino)methylene)isoquinoline-1,3(2H,4H)-dione] | 4.64 | 4.68 | 4.80 | 4.64 | – | – | – | – | – | –

Reference: patent publication US7713994B2 (Wyeth LLC, priority 2005, dated 2010)
